Data set [1] is described as follows: Storage stability of bulk sertraline hydrochloride Form II; polymorph content by XRPD. To be noted: for Polymorph Content of bulk sertraline hydrochloride, content of Form I (in parentheses) / Polymorph Content of bulk sertraline hydrochloride, Polymorphic Form detected (I or II): 40° C., 75% RH; for Polymorph Content of bulk sertraline hydrochloride, content of Form I (in parentheses): Form I relative to all sertraline hydrochloride. From the text: X-Ray powder diffraction data was obtained by using a SCINTAG powder X-Ray diffractometer model X′TRA equipped with a solid state detector. Copper radiation of 1.5418 Å was used. The diffractometer was equipped with a round aluminum sample holder with round zero background quartz plate having a cavity of 25(diameter)*0.5(depth) mm.

The conditions of data set [2]: granulation in isopropyl alcohol, ethyl acetate, hexane at 40 E to 60 E C; disclosed in U.S. Pat. No. 5,248,699; cited from earlier work.

Take `CN[C@H]1CC[C@@H](c2ccc(Cl)c(Cl)c2)c2ccccc21.Cl` [Example 1, (1S-cis)-4-(3,4 dichlorophenyl)-1,2,3,4-tetrahydro-N-methyl-1-naphthalenamine hydrochloride]: the “Polymorph Content of bulk sertraline hydrochloride, content of Form I (in parentheses)” value in data set [1] (1 month) is recorded as below 1%; in data set [1] (2 months), 2%; in data set [1] (3 months), 2%; in data set [1] (4 months), 4%; in data set [1] (t = 0), below 1%. The “Polymorph Content of bulk sertraline hydrochloride, Polymorphic Form detected (I or II)” value was “II > I” in data set [1] (1 month, hydrochloride); “II > I” in data set [1] (2 months, hydrochloride); “II > I” in data set [1] (3 months); “II > I” in data set [1] (4 months); “II > I” in data set [1] (t = 0, hydrochloride).
On to `CN[C@H]1CC[C@@H](c2ccc(Cl)c(Cl)c2)c2ccccc21.Cl` [Form II, (1S-cis)-4-(3,4 dichlorophenyl)-1,2,3,4-tetrahydro-N-methyl-1-naphthalenamine hydrochloride], for which the result of granulation in data set [2] is on record as “conversion to Form I”.
For `CN[C@H]1CC[C@@H](c2ccc(Cl)c(Cl)c2)c2ccccc21.Cl` [sertraline hydrochloride], the “stability during storage under stress conditions” value in data set [1] (Form II containing at least about 1% w/w Form I) is “not stable”.
